Values of other authors, collected in publication PMC10895697 (JAC-Antimicrobial Resistance, 2024).
Values after ≈ are worked out from the molar mass of the structure shown.

How the values were obtained:
S. aureus in osteoblasts = test system: S. aureus in osteoblasts; set-up: method as in PMID 34423360; details: at 100x its MIC; cited from earlier work
S. aureus = test system: S. aureus; set-up: method as in ref 11 (Chauvelot et al.); details: ref 11 (Chauvelot et al.); cited from earlier work

CN[C@H]1C(=O)N[C@@H]2Cc3ccc(cc3)Oc3cc4cc(c3O[C@@H]3O[C@H](C(=O)O)[C@@H](O)[C@H](O)[C@H]3NC(=O)CCCCCCCCC(C)C)Oc3ccc(cc3Cl)[C@@H](O)[C@@H]3NC(=O)[C@H](NC(=O)[C@@H]4NC(=O)[C@@H](NC2=O)c2cc(cc(O)c2Cl)Oc2cc1ccc2O)c1ccc(O)c(c1)-c1c(O[C@H]2O[C@H](CO)[C@@H](O)[C@H](O)[C@@H]2O)cc(O)cc1[C@@H](C(=O)NCCCN(C)C)NC3=O [dalbavancin]
peak of reduction of S. aureus in osteoblasts (S. aureus in osteoblasts): 51.6% | MIC (S. aureus): 0.125 µg/mL (≈ 0.0688 µM)
